{"source": "patent US20240027453A1", "about": "“METHOD FOR DETECTION AND QUANTITATIVE MONITORING OF INFECTIONS WITH HERPESVIRUSES” (The Trustees of Princeton University, priority 2020, published 2024)", "system": "HCMV", "format": "cell-based", "settings": "for UL47 (P16784) protein, numerical value of heatmap FIG. 6C / UL69 (P16749) protein, numerical value of heatmap FIG. 6C / UL70 (P17149) protein, numerical value of heatmap FIG. 6C / UL83 (P06725) protein, numerical value of heatmap FIG. 6C / UL132 (P69338) protein, numerical value of heatmap FIG. 6C / US15 (P09718) protein, numerical value of heatmap FIG. 6C / sp|P16810|IR12_HCMVA (P16810) protein, numerical value of heatmap FIG. 6C / DUT (P16824) protein, numerical value of heatmap FIG. 6C / TRM3 (P16732) protein, numerical value of heatmap FIG. 6C / TRX1 (P16783) protein, numerical value of heatmap FIG. 6C / TRX2 (P16728) protein, numerical value of heatmap FIG. 6C / UL24 (P16760) protein, numerical value of heatmap FIG. 6C / UL40 (P16780) protein, numerical value of heatmap FIG. 6C / UL49 (P16786) protein, numerical value of heatmap FIG. 6C / sp|P16808|IR10_HCMVA (P16808) protein, numerical value of heatmap FIG. 6C: LL", "procedure": "In example herpesvirus PRM assay methods shown herein, cell pellets were lysed in 2% SDS, 100 mM NaCl, 0.5 mM EDTA, 50 mM Tris, pH 8.2, and 50 μg of protein was reduced and alkylated with 25 mM TCEP and 50 mM CAM respectively for 20 min at 70° C. Proteins were then precipitated via methanol chloroform precipitation (Wessel & Flugg, Anal Biochem. 138(1):141-143, 1984), resuspended in 50 mM HEPES, pH 8.2 and digested overnight with trypsin (50:1 protein:enzyme w/w ratio). Digested peptides were desalted by SDB-RPS StageTip as previously described (Lum et al., Cell Syst., 7(6):[…], 2018; Greco et al., Methods Mol Biol 1410:39-63, 2016; Federspiel & Cristea, Methods Mol Biol., 1977:115-143, 2019).\nPeptides (1.0 μg on column) were analyzed by LC-MS/MS using a Dionex Ultimate 3000 UHPLC coupled online to an EASYSpray ion source and a Q Exactive HF. Peptides were separated on an EASYSpray C18 column (75 μm×25 cm) heated to 50° C. using a linear gradient of 5% B to 32% B over 60 min at a flow rate of 250 nL/min and were ionized at 1.7 kv. Mobile phase A consisted of 0.1% FA in H2O and mobile phase B consisted of 0.1% FA, 2.9% H2O in ACN.\nThe PRM method was controlled by a peptide inclusion list with retention time windows of 6 min for selected precursor ions.\nThe PRM assay was developed and analyzed using the open-source software Skyline (Maclean et al., Bioinformatics 26(7):966-968, 2010). Summed area under the curve of 3-4 transitions per peptide was used for quantitation. Targeted peptides were normalized to host protein loading control peptides. Peptide values for each sample were scaled to the average of each peptide across all runs. The average of multiple peptides was used as the inferred value for the protein measurement when more than one peptide was quantified (Federspiel et al., PLoS Biol. 17(9):e3000437. Doi: 10.1371/journal.pbio.3000437). PRM quantitation data were graphed using the Python Seaborn and Matplotlib libraries.\nMRC5 primary human fibroblasts (HFs) (ATCC CCL-171) were used as the model system for HSV-1 and HCMV infections and were cultured in complete growth medium (DMEM supplemented with 10% fetal bovine serum and 1% penicillin-streptomycin antibiotics) at 37° C. and 5% CO2. iSLK.219 cells harboring latent KSHV (a gift from Dr. Britt Glaunsinger, University of California, Berkeley) were grown in complete growth medium supplemented with 500 μg/ml hygromycin (ThermoFisher Scientific, 10687010) at 37° C. and 5% CO2. All cells were used for experiments within a maximum of 10 passages.\nWild type HSV-1 strain 17+ (a gift from Beate Sodeik, Hannover Medical School, Hannover, Germany) was propagated as previously described (Diner et al., 2015). Briefly, PO stocks were generated by electroporating pBAC-HSV-1 into U-2 OS cells. […] In a similar manner, wild type HCMV strain AD169 was produced from BAC electroporation into HFs and working stocks were propagated by infecting HFs at a low level. In both cases, cell-associated virus was released by sonication, combined with supernatant virus, then concentrated by ultracentrifugation (20,000 rpm, 2 hours, 4° C. with SW28 swinging bucket rotor [Beckman Coulter]) over a 10% ficoll (HSV-1) or 20% sorbitol (HCMV) cushion. Virus stock titers were determined by plaque assay for HSV-1 or tissue culture infectious dose (TCID50) for HCMV and infections were performed at a multiplicity of infection (MOI) of 3.\n12 hours prior to virus infection or reactivation, cells were treated with either the small molecule drug or DMSO/PBS control at an equivalent volume. […] For infection cycles lasting longer than 24 hours, small molecule drugs were re-added to the cell culture medium every 24 hours. Upon collection, cells were rinsed with PBS, scraped into a microcentrifuge tube, pelleted by centrifugation, and rinsed again with PBS.", "note": "Where two headings read alike, the source gives them in different places.", "data": [{"smiles": "Nc1ccn(C[C@@H](CO)OCP(=O)(O)O)c(=O)n1", "note": "[CDV, cidofovir]", "values": [{"measurement": "UL47 (P16784) protein, numerical value of heatmap FIG. 6C", "setting": "timepoint 48", "result": 0.03052}, {"measurement": "UL69 (P16749) protein, numerical value of heatmap FIG. 6C", "setting": "timepoint 48", "result": 0.2559}, {"measurement": "UL70 (P17149) protein, numerical value of heatmap FIG. 6C", "setting": "timepoint 48", "result": 0.3143}, {"measurement": "UL83 (P06725) protein, numerical value of heatmap FIG. 6C", "setting": "timepoint 48", "result": 0.03791}, {"measurement": "UL132 (P69338) protein, numerical value of heatmap FIG. 6C", "setting": "timepoint 48", "result": 0.1131}, {"measurement": "US15 (P09718) protein, numerical value of heatmap FIG. 6C", "setting": "timepoint 48", "result": 1.201}, {"measurement": "sp|P16810|IR12_HCMVA (P16810) protein, numerical value of heatmap FIG. 6C", "setting": "timepoint 48", "result": 0.2103}, {"measurement": "DUT (P16824) protein, numerical value of heatmap FIG. 6C", "setting": "timepoint 72", "result": 0.6275}, {"measurement": "TRM3 (P16732) protein, numerical value of heatmap FIG. 6C", "setting": "timepoint 72", "result": 0.4913}, {"measurement": "TRX1 (P16783) protein, numerical value of heatmap FIG. 6C", "setting": "timepoint 72", "result": 0.3363}, {"measurement": "TRX2 (P16728) protein, numerical value of heatmap FIG. 6C", "setting": "timepoint 72", "result": 0.3619}, {"measurement": "UL24 (P16760) protein, numerical value of heatmap FIG. 6C", "setting": "timepoint 72", "result": 0.3923}, {"measurement": "UL40 (P16780) protein, numerical value of heatmap FIG. 6C", "setting": "timepoint 72", "result": 0.7811}, {"measurement": "UL47 (P16784) protein, numerical value of heatmap FIG. 6C", "setting": "timepoint 72", "result": 0.4114}, {"measurement": "UL49 (P16786) protein, numerical value of heatmap FIG. 6C", "setting": "timepoint 72", "result": 0.5948}, {"measurement": "UL69 (P16749) protein, numerical value of heatmap FIG. 6C", "setting": "timepoint 72", "result": 0.6759}, {"measurement": "UL70 (P17149) protein, numerical value of heatmap FIG. 6C", "setting": "timepoint 72", "result": 0.743}, {"measurement": "UL83 (P06725) protein, numerical value of heatmap FIG. 6C", "setting": "timepoint 72", "result": 0.4276}, {"measurement": "UL132 (P69338) protein, numerical value of heatmap FIG. 6C", "setting": "timepoint 72", "result": 0.4516}, {"measurement": "US15 (P09718) protein, numerical value of heatmap FIG. 6C", "setting": "timepoint 72", "result": 0.8899}, {"measurement": "sp|P16808|IR10_HCMVA (P16808) protein, numerical value of heatmap FIG. 6C", "setting": "timepoint 72", "result": 0.2743}, {"measurement": "sp|P16810|IR12_HCMVA (P16810) protein, numerical value of heatmap FIG. 6C", "setting": "timepoint 72", "result": 0.6875}, {"measurement": "DUT (P16824) protein, numerical value of heatmap FIG. 6C", "setting": "timepoint 96", "result": 0.7823}, {"measurement": "TRM3 (P16732) protein, numerical value of heatmap FIG. 6C", "setting": "timepoint 96", "result": 0.7025}, {"measurement": "TRX1 (P16783) protein, numerical value of heatmap FIG. 6C", "setting": "timepoint 96", "result": 0.8409}, {"measurement": "TRX2 (P16728) protein, numerical value of heatmap FIG. 6C", "setting": "timepoint 96", "result": 0.8413}, {"measurement": "UL24 (P16760) protein, numerical value of heatmap FIG. 6C", "setting": "timepoint 96", "result": 0.7085}, {"measurement": "UL40 (P16780) protein, numerical value of heatmap FIG. 6C", "setting": "timepoint 96", "result": 0.7467}, {"measurement": "UL47 (P16784) protein, numerical value of heatmap FIG. 6C", "setting": "timepoint 96", "result": 0.7604}, {"measurement": "UL69 (P16749) protein, numerical value of heatmap FIG. 6C", "setting": "timepoint 96", "result": 0.9032}, {"measurement": "UL70 (P17149) protein, numerical value of heatmap FIG. 6C", "setting": "timepoint 96", "result": 0.8327}, {"measurement": "UL83 (P06725) protein, numerical value of heatmap FIG. 6C", "setting": "timepoint 96", "result": 1.027}, {"measurement": "UL132 (P69338) protein, numerical value of heatmap FIG. 6C", "setting": "timepoint 96", "result": 0.6887}, {"measurement": "US15 (P09718) protein, numerical value of heatmap FIG. 6C", "setting": "timepoint 96", "result": 0.6108}, {"measurement": "sp|P16808|IR10_HCMVA (P16808) protein, numerical value of heatmap FIG. 6C", "setting": "timepoint 96", "result": 0.6859}, {"measurement": "sp|P16810|IR12_HCMVA (P16810) protein, numerical value of heatmap FIG. 6C", "setting": "timepoint 96", "result": 0.5726}, {"measurement": "DUT (P16824) protein, numerical value of heatmap FIG. 6C", "setting": "timepoint 120", "result": 1.034}, {"measurement": "TRM3 (P16732) protein, numerical value of heatmap FIG. 6C", "setting": "timepoint 120", "result": 0.9855}, {"measurement": "TRX1 (P16783) protein, numerical value of heatmap FIG. 6C", "setting": "timepoint 120", "result": 1.114}, {"measurement": "TRX2 (P16728) protein, numerical value of heatmap FIG. 6C", "setting": "timepoint 120", "result": 1.493}, {"measurement": "UL24 (P16760) protein, numerical value of heatmap FIG. 6C", "setting": "timepoint 120", "result": 1.171}, {"measurement": "UL40 (P16780) protein, numerical value of heatmap FIG. 6C", "setting": "timepoint 120", "result": 0.9491}, {"measurement": "UL47 (P16784) protein, numerical value of heatmap FIG. 6C", "setting": "timepoint 120", "result": 0.9878}, {"measurement": "UL49 (P16786) protein, numerical value of heatmap FIG. 6C", "setting": "timepoint 120", "result": 0.6463}, {"measurement": "UL69 (P16749) protein, numerical value of heatmap FIG. 6C", "setting": "timepoint 120", "result": 1.467}, {"measurement": "UL70 (P17149) protein, numerical value of heatmap FIG. 6C", "setting": "timepoint 120", "result": 1.255}, {"measurement": "UL83 (P06725) protein, numerical value of heatmap FIG. 6C", "setting": "timepoint 120", "result": 1.677}, {"measurement": "UL132 (P69338) protein, numerical value of heatmap FIG. 6C", "setting": "timepoint 120", "result": 0.8677}, {"measurement": "US15 (P09718) protein, numerical value of heatmap FIG. 6C", "setting": "timepoint 120", "result": 0.4974}, {"measurement": "sp|P16808|IR10_HCMVA (P16808) protein, numerical value of heatmap FIG. 6C", "setting": "timepoint 120", "result": 0.9054}, {"measurement": "sp|P16810|IR12_HCMVA (P16810) protein, numerical value of heatmap FIG. 6C", "setting": "timepoint 120", "result": 0.762}, {"measurement": "levels of HCMV IE and E proteins", "setting": "early time points", "result": "decreased levels"}]}]}
